The values below come from US20240376108A1, “SALT AND CRYSTAL FORM OF PYRAZOLE-CONTAINING POLYCYCLIC DERIVATIVE, AND PREPARATION METHOD THEREFOR AND USE THEREOF” (Shanghai Hansoh Biomedical Co., Ltd., priority 2021, published 2024).

Molecules are shown by their SMILES. In brackets after ≈: the same amount, converted by molar mass.

What all share (format): physicochemical
A short description of data set [1]: Hygroscopicity experiment (DVS). To be noted: 25° C. An excerpt: 7.1 Hygroscopicity experiment of crystal forms of different salts of compound 2-(2-cyano-5-oxo-8-(trifluoromethyl)pyrazolo[1,5-a]pyrido[3,2-e]pyrimidin-4(5H)-yl)-N-(5-fluoropyridin-2-yl)acetamide
7.1.1 Experimental objective: To investigate the hygroscopicity of crystal forms of different salts of compound 2-(2-cyano-5-oxo-8-(trifluoromethyl)pyrazolo[1,5-a]pyrido[3,2-e]pyrimidin-4(5H)-yl)-N-(5-fluoropyridin-2-yl)acetamide at different relative humidity, so as to provide a basis for storage.
7.1.2 Experimental protocol: Crystal forms of different salts of the compound were placed in saturated water vapor with different relative humidity to achieve dynamic equilibrium between the compound and water vapor, and the percentage of hygroscopic weight gain of the compound after equilibrium was calculated.

The nature of data set [2]: Screening of the salt form and of the crystal form of the salt. To be noted: 40 to 50° C., stirred overnight. The method, then:
2.1 Screening of the salt form of the compound
2.1.1 Experimental objective: To screen the salt form of the compound.
Salt forming by solventing out or suspension: 10 mg of compound 2-(2-cyano-5-oxo-8-(trifluoromethyl)pyrazolo[1,5-a]pyrido[3,2-e]pyrimidin-4(5H)-yl)-N-(5-fluoropyridin-2-yl)acetamide was weighed, to which 200 μL to 400 μL of solvent was added. The solution was stirred at 40 to 50° C., to which different acids were added respectively. The solution was stirred overnight, cooled to room temperature, filtered, and dried to obtain the salt of the compound.
3.1 Study on the crystal form of the salt of 2-(2-cyano-5-oxo-8-(trifluoromethyl)pyrazolo[1,5-a]pyrido[3,2-e]pyrimidin-4(5H)-yl)-N-(5-fluoropyridin-2-yl)acetamide
3.1.1 Experimental objective: To screen the salt of compound 2-(2-cyano-5-oxo-8-(trifluoromethyl)pyrazolo[1,5-a]pyrido[3,2-e]pyrimidin-4(5H)-yl)-N-(5-fluoropyridin-2-yl)acetamide that can form a crystal form.
2) Operating procedures: Salt forming by solventing out or suspension: 10 mg of the compound was weighed, to which 200 μL to 400 μL of solvent was added. The solution was stirred at 40 to 50° C., to which different acids were added respectively. The solution was stirred overnight, cooled to room temperature, filtered, and dried to obtain the salt of the compound.

A short description of data set [3]: Solubility experiment in different media. The settings on record: room temperature, 24 hours. As to the method: The vials were placed on a spin mixer overnight at room temperature. After 24 hours, the sample solution was filtered through a 0.45 μm mixed aqueous fiber membrane. The content of the compound in the filtrate was determined by HPLC. [table]
Where [4] appears, read: Cycle 1, target relative humidity 0.0%.
Setting [5] is: Cycle 1, target relative humidity 10.0%.
[6] abbreviates: Cycle 1, target relative humidity 20.0%.
The mark [7] stands for this setting: Cycle 1, target relative humidity 30.0%.
The mark [8] stands for this setting: Cycle 1, target relative humidity 40.0%.
The mark [9] stands for this setting: Cycle 1, target relative humidity 50.0%.
Setting [10] is: Cycle 1, target relative humidity 60.0%.
Setting [11] is: Cycle 1, target relative humidity 70.0%.
Setting [12] is: Cycle 1, target relative humidity 80.0%.
The mark [13] stands for this setting: Cycle 1, target relative humidity 90.0%.
Where [14] appears, read: Cycle 1, target relative humidity 95.0%.
Setting [15] is: Cycle 2, target relative humidity 0.0%.
Where [16] appears, read: Cycle 2, target relative humidity 10.0%.
[17] abbreviates: Cycle 2, target relative humidity 20.0%.
The mark [18] stands for this setting: Cycle 2, target relative humidity 30.0%.
The mark [19] stands for this setting: Cycle 2, target relative humidity 40.0%.
[20] abbreviates: Cycle 2, target relative humidity 50.0%.
The mark [21] stands for this setting: Cycle 2, target relative humidity 60.0%.
Setting [22] is: Cycle 2, target relative humidity 70.0%.
Setting [23] is: Cycle 2, target relative humidity 80.0%.
The mark [24] stands for this setting: Cycle 2, target relative humidity 90.0%.
Where [25] appears, read: Cycle 2, target relative humidity 95.0%.
Setting [26] is: solvent Dichloromethane (400 μL).
Setting [27] is: solvent Tetrahydrofuran (200 μL).

As to `Cl.N#Cc1cc2n(CC(=O)Nc3ccc(F)cn3)c(=O)c3ccc(C(F)(F)F)nc3n2n1` [Hydrochloride (crystal form A), 2-(2-cyano-5-oxo-8-(trifluoromethyl)pyrazolo[1,5-a]pyrido[3,2-e]pyrimidin-4(5H)-yl)-N-(5-fluoropyridin-2-yl)acetamide hydrochloride], the “% percentage of mass change, Desorption” value is −0.041% in data set [1] (setting [4]); 0.130% in data set [1] (setting [5]); 0.313% in data set [1] (setting [6]); 7.258% in data set [1] (setting [7]); 7.532% in data set [1] (setting [8]); 7.722% in data set [1] (setting [9]). The “% percentage of mass change, Desorption” value in data set [1] (setting [10]) is given as 7.825%; in data set [1] (setting [11]), 7.898%; in data set [1] (setting [12]) it was 7.968%; in data set [1] (setting [13]) it was 8.071%; in data set [1] (setting [14]) it was 8.141%; in data set [1] (setting [15]) it was −0.062%. The “% percentage of mass change, Desorption” value in data set [1] (setting [16]) amounted to 0.098%; in data set [1] (setting [17]) it was 0.273%; in data set [1] (setting [18]), 7.191%; in data set [1] (setting [19]), 7.462%; in data set [1] (setting [20]), 7.649%; in data set [1] (setting [21]) it was 7.738%. Further, the “% percentage of mass change, Desorption” value is given as 7.806% in data set [1] (setting [22]), 7.872% in data set [1] (setting [23]), 7.972% in data set [1] (setting [24]) and 8.047% in data set [1] (setting [25]). Besides, the “% percentage of mass change, Sorption” value came out at 0.000% in data set [1] (setting [4]); 0.131% in data set [1] (setting [5]); 0.275% in data set [1] (setting [6]); 4.325% in data set [1] (setting [7]); 7.346% in data set [1] (setting [8]); 7.466% in data set [1] (setting [9]). The “% percentage of mass change, Sorption” value was 7.581% in data set [1] (setting [10]); 7.709% in data set [1] (setting [11]); 7.840% in data set [1] (setting [12]); 8.018% in data set [1] (setting [13]); 8.141% in data set [1] (setting [14]); −0.041% in data set [1] (setting [15]). The “% percentage of mass change, Sorption” value in data set [1] (setting [16]) is given as 0.095%; in data set [1] (setting [17]) it was 0.236%; in data set [1] (setting [18]), 5.345%; in data set [1] (setting [19]) it was 7.269%; in data set [1] (setting [20]) it was 7.383%; in data set [1] (setting [21]), 7.492%. Besides, the “% percentage of mass change, Sorption” value stood at 7.610% in data set [1] (setting [22]), 7.745% in data set [1] (setting [23]), 7.925% in data set [1] (setting [24]) and 8.047% in data set [1] (setting [25]).

With `O=S(=O)(O)O` [Sulfuric acid], the “Results (salt forming with acid, 1M in EtOH)” value (“Results” for short) in data set [2] (solvent 2-Butanone (250 μL)), in data set [2] (solvent Acetone (400 μL)), in data set [2] (setting [26]), in data set [2] (solvent Methanol (400 μL)) and in data set [2] (setting [27]) was “Crystal form” each time.

Regarding `N#Cc1cc2n(CC(=O)Nc3ccc(F)cn3)c(=O)c3ccc(C(F)(F)F)nc3n2n1` [crystal form II of the free base, 2-(2-cyano-5-oxo-8-(trifluoromethyl)pyrazolo[1,5-a]pyrido[3,2-e]pyrimidin-4(5H)-yl)-N-(5-fluoropyridin-2-yl)acetamide free base], the Solubility was found to be 0.7 µg/mL (≈ 1.62 µM) in data set [3] (FaSSGF); 1.1 µg/mL (≈ 2.55 µM) in data set [3] (FaSSIF); 2.5 µg/mL (≈ 5.8 µM) in data set [3] (FeSSIF); 0.6 µg/mL (≈ 1.39 µM) in data set [3] (H2O); 0.6 µg/mL (≈ 1.39 µM) in data set [3] (USP Buffer pH 1); 0.6 µg/mL (≈ 1.39 µM) in data set [3] (USP Buffer pH 2). The Solubility in data set [3] (USP Buffer pH 3) turned out to be 1.1 µg/mL (≈ 2.55 µM); in data set [3] (USP Buffer pH 4) it was 1 µg/mL (≈ 2.32 µM); in data set [3] (USP Buffer pH 5) it was 0.8 µg/mL (≈ 1.85 µM); in data set [3] (USP Buffer pH 6) it was 0.6 µg/mL (≈ 1.39 µM); in data set [3] (USP Buffer pH 7), 0.5 µg/mL (≈ 1.16 µM); in data set [3] (USP Buffer pH 8), 0.5 µg/mL (≈ 1.16 µM).

For the compound `Br` [Hydrobromic acid], the “Results” value in data set [2] (solvent 2-Butanone (250 μL)), in data set [2] (solvent Acetone (400 μL)), in data set [2] (setting [26]), in data set [2] (solvent Methanol (400 μL)) and in data set [2] (setting [27]) was “Crystal form” throughout.

For `CCS(=O)(=O)O` [Ethanesulfonic acid], the “Results” value in data set [2] (solvent 2-Butanone (250 μL)), in data set [2] (solvent Acetone (400 μL)), in data set [2] (setting [26]), in data set [2] (solvent Methanol (400 μL)) and in data set [2] (setting [27]) was “Crystal form” in each case.

Consider `Cl` [Hydrochloric acid], for which the “Results” value in data set [2] (solvent 2-Butanone (250 μL)), in data set [2] (solvent Acetone (400 μL)), in data set [2] (setting [26]), in data set [2] (solvent Methanol (400 μL)) and in data set [2] (setting [27]) was “Crystal form” each time.

For the compound `CS(=O)(=O)O` [Methanesulfonic acid], the “Results” value in data set [2] (solvent 2-Butanone (250 μL)), in data set [2] (solvent Acetone (400 μL)), in data set [2] (setting [26]), in data set [2] (solvent Methanol (400 μL)) and in data set [2] (setting [27]) was “Crystal form” throughout.

A word on the Solubility: it is how much of the substance goes into solution per volume. High values mean a readily soluble substance, low ones a poorly soluble substance.
